Here are results for 27 compounds from US20180265934A1, “COINCIDENCE REPORTER GENE SYSTEM” (The United States of America, as represented by the …, priority 2013, published 2018).

Molecules are shown by their SMILES. Where a name gives a salt, the structure may show the parent alone. Read-outs that look alike come from different tables or passages of the source. Where a SMILES comes first, the peptide text is derived from it. The star is where a group is joined. Cbz = O=C(OCc1ccccc1)*

For assay [1], the system named is cAMP-response element (CRE) / CREB pathway. Put plainly: LOPAC1280 qHTS, 4×CRE-driven FLuc-P2A-RLuc coincidence reporter (pCI-6.24) in GripTite 293 MSR cells. It counts as cell-based. As to the method: This protocol measures bioluminescence derived from both FLuc and RLuc expression from a single assay. […] Sixteen hours after transfection, cells were trypsinized and then dispensed at 2,000 cells/20 μL/well in 384-well tissue culture treated white/solid bottom plates (Greiner Bio-One North America, Monroe, N.C.). The assay plates were incubated at 37° C. for 10 hours before adding the DUAL-GLO detection reagent (Promega). Luminescence from luciferase activity was detected by using a VIEWLUX plate reader (PerkinElmer, Waltham, Mass.).
Sixteen hours after transfection, cells were trypsinized and then dispensed at 500 cells/4 μL/well in 1,536-well tissue culture treated white/solid bottom plates (Greiner Bio-One North America) using a multidrop combi dispenser (Thermo Fisher Scientific). […] The assay plates were incubated at 37° C. for 10 hours before adding the DUAL-GLO detection reagent (3.5 μL+3.5 μL for each well) (Promega). Luminescence from luciferase activity was detected by using VIEWLUX (PerkinElmer). Each experimental plate contained forskolin as a positive control and DMSO as a negative control. Percentage activity was defined as the percentage signal relative to forskolin (100%) and DMSO (0%).
In general terms: Quantitative high-throughput screening tests each substance at several concentrations.

The subject of assay [2] is PARK2 (Parkin) gene expression. The assay can be described thus: Compound library screening, Parkin coincidence reporter cell line (FLuc-P2A-NLuc in PARK2 locus, BE(2)-M17 cells), 1536-well. The following applies: 24 h, titration. Format: cell-based, human. As to the method:
Construction of the Parkin coincidence reporter cell line by TALEN-mediated genome editing was carried out as follows. To generate a double-strand cleavage of the genomic DNA in the first codon of the PARK2 gene, constructs encoding transcription activator-like effector nuclease (TALEN) pairs (Right and Left) encoding components of the heterodimeric FokI nuclease were generated as described by Huang et al., Nature Biotechnology, 29: 699-700 (2011). The TALEN pair was designed to generate a double-strand cleavage at or near the first translation codon (ATG) within the Parkin gene. These constructs were transfected with Lipofectamine LTX (Life Technologies) into BE(2)-M17 cells (ATCC) […] along with a GFP-expressing marker plasmid and the coincidence reporter donor plasmid. After 48 hours of incubation in a tissue culture incubator, GFP-positive cells were sorted by FACS analysis and single clones were isolated and expanded. Once sufficient cell populations for each clone were achieved, analysis of correct genomic insertion of the Fluc-P2A-NLuc-PEST-PolyA coincidence reporter cassette that replaced the “ATGATAG” (SEQ ID NO: 362) sequence at the […] of the PARK2 gene exon 1 was ascertained by PCR and DNA sequencing of genomic DNA preparations (QIAGEN).
Compound library screening in 1536-well plates was carried out as follows. The Parkin coincidence reporter cell line was seeded at a density of 2000 cell/well into white, solid bottom, tissue-culture treated (Greiner Bio-One), 1536-well microplates in a total of 5 μL/well of culture medium. After a 16 hour incubation in a tissue-culture incubator, a compound pin tool (Wako) was used to transfer 20 nL of compound dissolved in DMSO for library plates to the assay plates. Compounds were present in either a 6 or 12-point titration in the library plates. DMSO vehicle, CCCP, and PTC-124 were also added to the designated control well. After a 24 hour incubation in the tissue culture incubator, the volume in each well of both plates was reduced to 2 μL with a microplate aspiration system (BioTek) and then 2 μL of Firefly Luciferase assay reagent (Promega) was added to every well each plate and luminescent signal from each well of each plate was measured on a VIEWLUX plate reader (PerkinElmer). Following the first read, 2 μL of NanoLuc assay reagent (Promega) including a proprietary firefly luciferase inhibitor (to quench the firefly reaction) was added to every well of each plate. After a second 15 minute incubation at room temperature, the NanoLuc signal from each well of each plate was measured on the VIEWLUX. Raw luminescent signal is expressed as a % of the positive control (10 uM CCCP for NanoLuc and 500 nM PTC-124 for FLuc).

The mark [3] stands for this setting: GripTite 293 MSR, 10 h, Table 5, coincident activators; FLuc readout, 10 h, ~4 nM to 57 μM; read-out: FLuc EC50.
Where [4] appears, read: GripTite 293 MSR, 10 h, Table 5, coincident activators; RLuc readout, 10 h, ~4 nM to 57 μM; read-out: RLuc EC50.
Where [5] appears, read: GripTite 293 MSR, 10 h, Table 6, compounds activating RLuc only; RLuc readout, 10 h; read-out: RLuc EC50.
Setting [6] is: Table 5, coincident activators; FLuc readout, 10 h, ~4 nM to 57 μM; read-out: FLuc EC50.
Where [7] appears, read: Table 5, coincident activators; RLuc readout, 10 h, ~4 nM to 57 μM; read-out: RLuc EC50.
Where [8] appears, read: Table 6, compounds activating RLuc only; RLuc readout, 10 h; read-out: RLuc EC50.
[9] abbreviates: GripTite 293 MSR; Table 6, compounds activating RLuc only; RLuc readout, 10 h; read-out: RLuc EC50.

The term EC50 denotes the concentration that produces a half-maximal response.

For the compound `Cc1ccccc1CNc1ncnc2c1ncn2[C@@H]1O[C@H](CO)[C@@H](O)[C@H]1O` [compound 3, Metrifudil], the “Ratio F/R” value in assay [1] (FLuc EC50 / RLuc EC50, Table 5) was determined as 2.20. For the same compound, the figures for the EC50 in assay [1] (setting [3]) and in assay [1] (setting [4]) were 1.34 µM and 0.61 µM, respectively.
Take `O=C(c1ccc(OCCN2CCCCC2)cc1)c1c(-c2ccc(O)cc2)sc2cc(O)ccc12` [cpd 26, Raloxifene hydrochloride]: in assay [1] (setting [5]), the EC50 amounted to 12 µM.
With `CC1=NS(=O)(=O)c2cc(Cl)ccc2N1` [cpd 24, Diazoxide], the EC50 in assay [1] (setting [5]) was 9.15 µM.
For the compound `C#CCOC(=O)C1=CCCN(C)C1` [cpd 18, Arecaidine propargyl ester hydrobromide (APE)], in assay [1] (FLuc EC50 / RLuc EC50, Table 5), the “Ratio F/R” value stood at 1.16. In addition, the EC50 in assay [1] (setting [6]) came to 3.59 µM; in assay [1] (setting [7]), 3.09 µM. Moreover, in assay [1] (qHTS, both reporters), the “FLuc and RLuc signal outputs in the screen” value was “coincident FLuc and RLuc signal outputs”.
Regarding `CCCCC#Cc1nc(NC)c2ncn([C@@H]3O[C@H](CO)[C@@H](O)[C@H]3O)c2n1` [compound 14, HEMADO], in assay [1] (FLuc EC50 / RLuc EC50, Table 5), the “Ratio F/R” value was 1.78. Also, the EC50 in assay [1] (setting [6]) came out at 2.69 µM; in assay [1] (setting [7]), 1.51 µM.
For `CC(C)C[C@@H](C=O)NC(=O)[C@H](CC(C)C)NC(=O)[C@H](CC(C)C)NC(=O)OCc1ccccc1` [MG-132] (Cbz-Leu-Leu-Leu-aldehyde), in assay [2], the “coincident reporter response (FLuc and NLuc)” value (from here on “coincident reporter response”) is “do not elicit a coincident reporter response”; the “signal obtained through reporter interference” value was “NLuc signal is obtained through reporter interference”.
As to `C[C@H](Cc1ccccc1)Nc1ncnc2c1ncn2[C@@H]1O[C@H](CO)[C@@H](O)[C@H]1O` [cpd 1, R(−)-N6-(2-Phenylisopropyl)adenosine], the “Ratio F/R” value in assay [1] (FLuc EC50 / RLuc EC50, Table 5) was found to be 3.32. Besides, the EC50 in assay [1] (setting [6]) stood at 9.37 µM; in assay [1] (setting [7]), 2.82 µM.
Regarding `CNc1cc(NS(=O)(=O)c2ccc(N)cc2)nc(NC)n1` [compound 20, Ro 04-6790 hydrochloride], in assay [1] (setting [8]), the EC50 amounted to 2.05 µM.
For `CNc1ncnc2c1ncn2[C@@H]1O[C@H](CO)[C@@H](O)[C@H]1O` [compound 12, N6-Methyladenosine], the “Ratio F/R” value in assay [1] (FLuc EC50 / RLuc EC50, Table 5) was determined as 1.26. Besides, the figures for the EC50 in assay [1] (setting [3]) and in assay [1] (setting [4]) were 16.7 µM and 13.3 µM, respectively.
Regarding `CNC(=O)[C@H]1O[C@@H](n2cnc3c(NCc4ccc(N)cc4)ncnc32)[C@H](O)[C@@H]1O` [compound 9, AB-MECA], the “Ratio F/R” value in assay [1] (FLuc EC50 / RLuc EC50, Table 5) was 3.51. Besides, the figures for the EC50 in assay [1] (setting [6]) and in assay [1] (setting [7]) were 1.51 µM and 0.43 µM, respectively.
Take `Nc1nc(Nc2ccccc2)nc2c1ncn2[C@@H]1O[C@H](CO)[C@@H](O)[C@H]1O` [compound 4, 2-Phenylaminoadenosine]: in assay [1] (FLuc EC50 / RLuc EC50, Table 5), the “Ratio F/R” value was 0.95. For the same compound, the EC50 in assay [1] (setting [3]) was 10.7 µM; in assay [1] (setting [4]), 11.2 µM.
The like results for `Nc1nc(Cl)nc2c1ncn2[C@@H]1O[C@H](COP(=O)([O-])OP(=O)([O-])OP(=O)([O-])[O-])[C@@H](O)[C@H]1O.[Na+].[Na+].[Na+].[Na+]` [compound 17, 2-Chloroadenosine triphosphate tetrasodium] were, in that order, 2.96, 11.5 µM and 3.89 µM.
Turning to `NC(=S)c1ccc[n+]([C@@H]2OC(COP(=O)([O-])OP(=O)(O)OC[C@H]3O[C@@H](n4cnc5c(N)ncnc54)[C@H](OP(=O)(O)O)[C@@H]3O)C(O)C2O)c1` (stereo in doubt) [compound 15, Thio-NADP sodium], the “Ratio F/R” value in assay [1] (FLuc EC50 / RLuc EC50, Table 5) is given as 0.95. The results for the EC50 in assay [1] (setting [6]) and in assay [1] (setting [7]) were 2.39 µM and 2.51 µM, respectively.
With `Nc1nc(Cl)nc2c1ncn2[C@@H]1O[C@H](CO)[C@@H](O)[C@H]1O` [compound 11, 2-Chloroadenosine], the “Ratio F/R” value in assay [1] (FLuc EC50 / RLuc EC50, Table 5) is reported as 1.13. The EC50 was found to be 0.43 µM in assay [1] (setting [3]) and 0.38 µM in assay [1] (setting [4]).
With `OC[C@H]1O[C@H](n2cnc3c(N[C@H]4CCC[C@@H]4O)ncnc32)[C@H](O)[C@@H]1O` [compound 7, GR 79236X], the “Ratio F/R” value in assay [1] (FLuc EC50 / RLuc EC50, Table 5) was 0.85. Moreover, the EC50 came out at 2.69 µM in assay [1] (setting [6]) and 3.16 µM in assay [1] (setting [7]).
Taken in the same sequence, the figures for `NC(=O)C1=CN([C@@H]2O[C@H](COP(=O)(O)OP(=O)(O)OC[C@H]3O[C@@H](n4cnc5c(N)ncnc54)[C@H](OP(=O)(O)O)[C@@H]3O)[C@@H](O)[C@H]2O)C=CC1` [compound 16, NADPH tetrasodium] were 0.81, 18.2 µM and 22.4 µM.
For `COc1ccc(Cl)cc1C(=O)NCCc1ccc(S(=O)(=O)NC(=O)NC2CCCCC2)cc1` [cpd 23, Glybenclamide], in assay [1] (setting [5]), the EC50 stood at 30.4 µM.
Consider `Oc1ccc(C=Cc2cc(O)cc(O)c2)cc1` [Resveratrol], for which, in assay [2], the “coincident reporter response” value was “do not elicit a coincident reporter response”; the “signal obtained through reporter interference” value is reported as “FLuc signal is obtained through reporter interference”.
On to `OC[C@H]1O[C@@H](n2cnc3c(Nc4ccccc4)ncnc32)[C@H](O)[C@@H]1O` [cpd 2, N6-Phenyladenosine], for which the “Ratio F/R” value in assay [1] (FLuc EC50 / RLuc EC50, Table 5) amounted to 0.87. For the same compound, the EC50 in assay [1] (setting [3]) was determined as 12.7 µM; in assay [1] (setting [4]), 14.6 µM.
As for `NC(=O)COc1c(F)cc(SCCNS(=O)(=O)c2ccccc2)cc1F` [cpd 21, 2,6-Difluoro-4-[2-(phenylsulfonylamino)ethylthio]phenoxyacetamide], the EC50 in assay [1] (setting [9]) amounted to 21.4 µM.
Take `NCCNS(=O)(=O)c1cccc2c(Cl)cccc12` [cpd 22, A3 hydrochloride]: the EC50 in assay [1] (setting [8]) was found to be 15.8 µM.
`O=c1c(O)c(-c2ccc(O)c(O)c2)oc2cc(O)cc(O)c12` [Quercetin]: in assay [2], the “coincident reporter response” value is “elicits a coincidence response from both FLuc and NLuc”; the “modulation of endogenous Parkin expression” value is “genuine modulator of endogenous Parkin expression”.
Turning to `N#CC(=C(/N)Sc1ccccc1N)/C(C#N)=C(\N)Sc1ccccc1N` [cpd 25, U0126], the EC50 in assay [1] (setting [9]) is 8.49 µM.
Consider `Nc1ccc(CCNc2ncnc3c2ncn3[C@@H]2O[C@H](CO)[C@@H](O)[C@H]2O)cc1` [compound 8, N6-2-(4-Aminophenyl)ethyladenosine], for which the “Ratio F/R” value in assay [1] (FLuc EC50 / RLuc EC50, Table 5) worked out at 1.56. In addition, the EC50 worked out at 1.45 µM in assay [1] (setting [3]) and 0.93 µM in assay [1] (setting [4]).
Turning to `CCNC(=O)[C@H]1O[C@@H](n2cnc3c(N)ncnc32)[C@H](O)[C@@H]1O` [compound 13, 5′-N-Ethylcarboxamidoadenosine], the “Ratio F/R” value in assay [1] (FLuc EC50 / RLuc EC50, Table 5) worked out at 0.56. The EC50 in assay [1] (setting [6]) was 0.3 µM; in assay [1] (setting [7]), 0.54 µM.
For the compound `OC[C@H]1O[C@@H](n2cnc3c(NC4CCCC4)ncnc32)[C@H](O)[C@@H]1O` [compound 6, N6-Cyclopentyladenosine], the “Ratio F/R” value in assay [1] (FLuc EC50 / RLuc EC50, Table 5) is on record as 0.75. Moreover, the values for the EC50 in assay [1] (setting [3]) and in assay [1] (setting [4]) were 0.95 µM and 1.26 µM, respectively.
Taken in the same sequence, the figures for `OC[C@H]1O[C@@H](n2cnc3c(NC4CCCCC4)ncnc32)[C@H](O)[C@@H]1O` [compound 5, N6-Cyclohexyladenosine] were 0.67, 16.9 µM and 25.1 µM.
